US20120302614A1, “METHOD FOR IMPROVING CEREBRAL CIRCULATION OR TREATING A CEREBRAL BLOOD FLOW DISORDER” (OSAKA UNIVERSITY, priority 2007, published 2012)
“Also recorded” adds a separate entry of the source.

Legend:
[1] = test system: Aβ injection model (Aβ 1-40 administered intracerebroventricularly); assay: Morris water maze test in Aβ injection model, Test Example 1; type: in vivo, ddY mouse; conditions: oral administration for four weeks in advance of Aβ 1-40
Method: The therapeutic effect of olmesartan medoxomil in Aβ injection model and the dose dependency thereof were examined according to the following experimental schedule. [Experimental Schedule]: Prior to the experiment, 8-week old male ddY mice were administered olmesartan medoxomil (0.5 mg/kg/day, 1 mg/kg/day, 3 mg/kg/day or 6 mg/kg/day) or distilled water orally for four weeks (day −28 to −1). Then, Aβ 1-40 was administered to the mice intracerebroventricularly (day 0). (Although Aβ 1-40 was administered into one of the lateral ventricles in WO 2006/059777, Aβ 1-40 was administered in Test Example 1 to both lateral ventricles with an interval of one day between two administrations. Except for this point, Aβ 1-40 administration was performed in the same manner as in WO 2006/059777.) From one week thereafter, a behavioral test to evaluate cognitive function (Morris water maze test; Morris R et al., J Neuroscience Methods 1984, 11, 47-60) was performed (day 7 to 12). As a negative control, mice which had received oral administration of distilled water for four weeks were administered Aβ 40-1 intracerebroventricularly. The administration of olmesartan medoxomil or distilled water was continued until the end of the behavioral test. Measurements were performed as described below. • Hidden platform test: A platform is placed below the water surface of a water pool 150 cm in diameter filled with white water-colored. Mice are released into the water, and the time it takes them to reach the platform is measured. This trial is performed three times a day and for five consecutive days. As they learn, mice become able to reach the platform more quickly day by day. • Visible platform test: Mice are released into the water under such conditions that they can see the platform. The time it takes them to reach the platform is measured. • Probe test: The platform is removed, and mice are released and allowed to swim freely. Those mice with good learning/memory swim in the quadrant where the platform was located searching for the platform. The time they spent in that quadrant is measured. • Annnulus crossing: The number of times mice crossed the platform in the probe test is counted.

Aβ-injected mice [2] = assay: Cerebral blood flow response to whisker stimulation (functional hyperemia), Test Example 3; type: in vivo, mouse; conditions: Aβ-injected mice with or without treatment
Method: (§1) • Electrophysiology: Long term potentiation was measured as previously reported (Niisato K, Fujikawa A, Komai S, Shintani T, Watanabe E, Sakaguchi G, Katsuura G, Manabe T, Noda M: Age-dependent enhancement of hippocampal long-term potentiation and impairment of spatial learning through the Rho-associated kinase pathway in protein tyrosine phosphatase receptor type Z-deficient mice. J Neurosci 2005; 25:1081-1088). Transverse hippocampal slices (400 μm thick) were prepared from 5- to 10-week-old mice or from 13- to 31-week-old mice and placed in an interface-type holding chamber for at least 1 hr. […] For the analysis of EPSPs, the inventors measured their early rising phase in order to avoid contamination by voltage-dependent components as much as possible. […] The data are expressed as mean±SEM. […] Cerebral blood flow (CBF) was continuously monitored at the site of perfusion with a laser-Doppler probe positioned stereotaxically on the cortical surface and connected to a computerized data acquisition system. CBF values were expressed as percent increase relative to the resting level. Zero values for CBF were obtained after the heart was stopped by an overdose of isoflurane at the end of the experiment. • Effect of topical application of Aβ40 on functional hyperemia: The cranial window was first perfused with Ringer's solution, and CBF responses to whisker stimulation were recorded. […]

[3] = test system: hippocampus (CA1/Schaffer collaterals) of Aβ40-injected mice; assay: Long-term potentiation in hippocampal slices, Test Example 3; type: in vivo, mouse; conditions: Aβ40-injected mice with or without treatment
Method: as §1

Aβ-injected mice [4] = assay: Cerebrovascular autoregulation (CBF versus MAP), Test Example 3; type: in vivo, mouse; conditions: Aβ-injected mice with or without treatment
Method: as §1

In the case of `CCCc1nc(C(C)(C)O)c(C(=O)O)n1Cc1ccc(-c2ccccc2-c2nnn[nH]2)cc1` [olmesartan, 4-(1-hydroxy-1-methylethyl)-2-propyl-1-[4-[2-(tetrazol-5-yl)phenyl]phenyl]methylimidazole-5-carboxylic acid], the “cognitive impairment (spatial memory and learning) in Morris water maze test, overall” value [1] was “ameliorated”, the “Aβ-induced impairment in neurovascular coupling (CBF response to whisker stimulation)” value (Aβ-injected mice [2]) was “improved; also recorded: recovery of neurovascular coupling” and the “long-term potentiation (LTP) in hippocampus, field potential slope after tetanic stimulation” value [3] was “recovery of LTP”. The “cerebrovascular autoregulation impaired by Aβ (relation between CBF and MABP)” value (Aβ-injected mice [4]) was “recovered”.
